This is an account of results in ChEMBL document CHEMBL4806960, “Inhibitors of GPR174 and Uses Thereof” (2020).

Activity calls are given as the source filed them. The calls are words filed in the database; no cut-off is given here.

In assay [1] the target is T1, Probable G-protein coupled receptor 174 (Homo sapiens, UniProt Q9BXC1). Nature of the assay: Inverse agonist activity at human GPR174 expressed in cells assessed as inhibition of CRE-luc reporter activity by measuring decrease in Gs-protein signalling activity relative to control. Type of assay: functional, cell-based.
T1 sequence (Q9BXC1 whole entry): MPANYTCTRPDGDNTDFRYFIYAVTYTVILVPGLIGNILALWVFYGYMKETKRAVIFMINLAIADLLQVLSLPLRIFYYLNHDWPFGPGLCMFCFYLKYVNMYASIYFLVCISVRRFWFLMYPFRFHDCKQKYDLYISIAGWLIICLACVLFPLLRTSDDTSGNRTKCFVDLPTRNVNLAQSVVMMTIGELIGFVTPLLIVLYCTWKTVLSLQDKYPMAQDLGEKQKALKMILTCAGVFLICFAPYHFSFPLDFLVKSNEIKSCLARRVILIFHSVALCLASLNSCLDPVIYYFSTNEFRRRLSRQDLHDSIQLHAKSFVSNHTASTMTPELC
Assay [2] deals with T1, Probable G-protein coupled receptor 174. Nature of the assay: Antagonist activity at human GPR174 expressed in cells assessed as inhibition of CRE-luc reporter activity by measuring decrease in Gs-protein signalling activity relative to control. Type of assay: functional, cell-based. To be noted: filed as antagonist.
Assay [3] shares this target. Nature of the assay: Allosteric modulator activity at human GPR174 expressed in cells assessed as inhibition of CRE-luc reporter activity by measuring decrease in Gs-protein signalling activity relative to control. The note with it: filed as […] allosteric modulator. Type of assay: functional, cell-based.
The target is the same in assay [4]. In words: Inhibition of GPR174 (unknown origin) in cells assessed as incorporation of nuclear localization sequence into transmembrane protein by cellular redistribution assay. The assay is classed as functional.
The target is the same in assay [5]. In words: Inhibition of human GPR174 in anti-CD3/antiCD28-stimulated human PBMC assessed as increase in IL-2 level measured after 2 days by ELISA. The assay is classed as functional, tissue-based. The note with it: time 2.0 day. On the technique in general: ELISA stands for enzyme-linked immunosorbent assay.
Assay [6] has the same target. In words: Inhibition of human GPR174 in anti-CD3/antiCD28-stimulated human PBMC assessed as reduction in natural Treg cells (FoxP3+Helios+) at 100 uM measure after 7 days by flow cytometry. Type of assay: functional, cell-based. The note with it: time 7.0 day. Background: In flow cytometry, cells or beads pass a laser one at a time.
For assay [7] the target is unchanged. In words: Inhibition of human GPR174 in anti-CD3/antiCD28-stimulated human PBMC assessed as reduction in CTLA4 expression relative to control. Type of assay: functional, tissue-based. The note with it: dose 0.19-6 µM.
Assay [8] has the same target. Nature of the assay: Inhibition of human GPR174 in anti-CD3/antiCD28-stimulated CD45RA-FOXP+ human PBMC assessed as reduction in CTLA4 expression measured in memory Treg cells relative to control. The assay is classed as functional, cell-based. The note with it: dose 0.19-6 µM.
Assay [9] shares this target. In words: Inhibition of human GPR174 in anti-CD3/antiCD28-stimulated human PBMC assessed as CD4+ cell population at 10 uM measured after 2 days relative to control. Type of assay: functional, tissue-based. Details: scale not given: the % may be the effect or the level left. The note with it: time 2.0 day.
Assay [10] has the same target. Nature of the assay: Inhibition of human GPR174 in anti-CD3/antiCD28-stimulated human PBMC assessed as increase in IL-6 production at 10 uM measured after 2 days relative to control. The assay is classed as functional, tissue-based. To be noted: time 2.0 day.
Assay [11] has the same target. In words: Inhibition of human GPR174 in anti-CD3/antiCD28-stimulated human PBMC assessed as non-T cell cell population at 10 uM measured after 2 days relative to control. Type of assay: functional, tissue-based. On the set-up: scale not given: the % may be the effect or the level left. The note with it: time 2.0 day.
For assay [12] the target is unchanged. In words: Inhibition of human GPR174 in anti-CD3/antiCD28-stimulated human regulatory T cells assessed as reduction in CTLA4 expression relative to control. The assay is classed as functional, tissue-based. To be noted: T cell, dose 0.19-6 µM.
Assay [13] shares this target. In words: Inhibition of human GPR174 in anti-CD3/antiCD28-stimulated human PBMC assessed as reduction in AREG expression in CD4+ T cell relative to control. Type of assay: functional, tissue-based.
For assay [14] the target is unchanged. Nature of the assay: Inhibition of human GPR174 in anti-CD3/antiCD28-stimulated human PBMC assessed as increase in IL-2 production measured after 2 days. To be noted: dose 3-60 µM, time 2.0 day. Type of assay: functional, tissue-based.
Assay [15] shares this target. In words: Inhibition of human GPR174 in anti-CD3/antiCD28-stimulated human PBMC assessed as reduction in natural Treg cells (FoxP3+Helios+) measure after 7 days by ELISA. The assay is classed as functional, cell-based. To be noted: dose 3-30 µM, time 7.0 day.
Assay [16] has the same target. In words: Inhibition of human GPR174 in anti-CD3/antiCD28-stimulated human PBMC assessed as increase in IFNgamma production at 10 uM measured after 2 days relative to control. To be noted: time 2.0 day. The assay is classed as functional, tissue-based.
Assay [17] shares this target. Nature of the assay: Inhibition of human GPR174 in anti-CD3/antiCD28-stimulated CD45RA-FOXP+ human PBMC assessed as reduction in CTLA4 expression measured in non-memory Treg cells relative to control. The assay is classed as functional, cell-based. The note with it: dose 0.19-6 µM.
The target is the same in assay [18]. Nature of the assay: Inhibition of human GPR174 in anti-CD3/antiCD28-stimulated human PBMC assessed as reduction in PD-L1 expression in CD4+ T cell relative to control. The assay is classed as functional, tissue-based.
The target is the same in assay [19]. Nature of the assay: Inhibition of human GPR174 in anti-CD3/antiCD28-stimulated human PBMC assessed as CD8+ cell population at 10 uM measured after 2 days relative to control. Type of assay: functional, tissue-based. On the set-up: scale not given: the % may be the effect or the level left. To be noted: time 2.0 day.
Assay [20] has as its target Probable G-protein coupled receptor 174 (Mus musculus) (UniProt Q3U507). Nature of the assay: Inhibition of mouse GPR174 in anti-CD3/antiCD28-stimulated mouse splenocytes assessed as increase in IL-2 production at 10 uM measured after 2 days. Type of assay: functional, tissue-based. To be noted: Splenocyte, time 2.0 day.
In assay [21] the target is T1, Probable G-protein coupled receptor 174. In words: Inhibition of human GPR174 in anti-CD3/antiCD28-stimulated human PBMC assessed as increase in TNFalpha production at 10 uM measured after 2 days relative to control. The assay is classed as functional, tissue-based. To be noted: time 2.0 day.
The target is the same in assay [22]. Nature of the assay: Inhibition of GPR174 in anti-CD3/antiCD28-stimulated human PBMC assessed as increase in IFNgamma level measured after 2 days by ELISA. Type of assay: functional, tissue-based. The note with it: time 2.0 day.
For assay [23] the target is unchanged. Nature of the assay: Inhibition of human GPR174 in anti-CD3/antiCD28-stimulated human PBMC assessed as increase in IL-10 production at 10 uM measured after 2 days relative to control. Type of assay: functional, tissue-based. The note with it: time 2.0 day.
Assay [24] shares this target. In words: Inhibition of human GPR174 in anti-CD3/antiCD28-stimulated human PBMC assessed as increase in natural Treg cells […] at 100 uM measure after 7 days by flow cytometry. The note with it: time 7.0 day. The assay is classed as functional, cell-based.
Assay [25] has the same target. In words: Inhibition of human GPR174 in anti-CD3/antiCD28-stimulated human PBMC assessed as reduction in TGIT expression in CD8+ T cell relative to control. The assay is classed as functional, tissue-based.
Another assay deals with Splenocyte. Nature of the assay: Effect on IL-2 production in mouse GPR174 knock out splenocytes at 10 uM measured after 2 days. The assay is classed as functional, cell-based. To be noted: time 2.0 day.

Probable G-protein coupled receptor 174 (Mus musculus), sequence (Q3U507 whole entry): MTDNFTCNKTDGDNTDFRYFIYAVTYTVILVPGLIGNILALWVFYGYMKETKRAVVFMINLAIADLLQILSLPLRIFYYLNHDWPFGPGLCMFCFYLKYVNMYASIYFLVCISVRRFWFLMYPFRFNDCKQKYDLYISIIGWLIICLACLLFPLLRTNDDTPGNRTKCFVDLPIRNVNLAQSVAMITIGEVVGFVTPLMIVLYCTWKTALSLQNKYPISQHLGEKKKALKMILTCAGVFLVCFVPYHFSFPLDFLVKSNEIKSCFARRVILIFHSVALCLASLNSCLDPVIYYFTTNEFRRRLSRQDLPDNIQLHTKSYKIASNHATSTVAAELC

For the compound `C=C(C)COc1ccc(NC(=O)Nc2ccccc2)cc1`, the Ratio in assay [1] was 3.7.
On to `Cc1ccc(-c2nnc(Nc3ccccc3)c3ccccc23)cc1S(N)(=O)=O`, for which the outcome in assay [2] and in [3] was Active.
Consider `CC(=O)c1ccc(N2CCN(C(=O)c3ccc(F)cc3)CC2)c(F)c1`, for which the result in assay [2] and in assay [3] was Active.
For the compound `Cc1cc(C(=O)N/N=C/c2cc(Br)ccc2O)c(C)o1`, the result in assay [2] and in assay [3] was Active.
Turning to `CCOc1ccc(C2C3=C(CCCC3=O)NC3=C2C(=O)c2ccccc23)cn1` (stereo not given), in [1], the Ratio is 3.
In the case of `CCCC(=O)c1ccc(N2CCN(S(=O)(=O)c3ccc(C)cc3)CC2)c(F)c1`, the result in assay [2] was Active.
Turning to `Cc1cc(Cc2ccc(NC(=O)c3cccs3)c(C)c2)ccc1NC(=O)c1cccs1`, the result in [2] and in assay [3] was Active. The EC50 in [4] amounted to 500 nM.
On to `Cc1ccccc1Nc1nnc(-c2ccc(C)c(S(N)(=O)=O)c2)c2ccccc12`, for which the result in [2] and in assay [3] was Active.
`O=C(c1ccccc1)N1CCN(c2cc(N3CCCCC3)c(F)cc2[N+](=O)[O-])CC1`: in assay [5], the Activity result was “Dose-Dependent Effect”.
On to `O=C(N/N=C/c1cc(Cl)ccc1O)c1ccncc1`, for which the result in assay [2] and in [3] was Active.
Consider `CC1CCN(c2cc(N3CCN(S(=O)(=O)c4ccccc4)CC3)c([N+](=O)[O-])cc2F)CC1`, for which the result in assay [6], in [8], in assay [10], in [16], in assay [17] and in [20] was Active. Besides, the result in assay [21], in assay [22], in assay [23] and in assay [24] was Active. The Activity entry is “Dose-Dependent Effect” in [7]; 46.2% in [9]; 33.9% in assay [11]; “Dose-Dependent Effect” in assay [12]; “Dose-Dependent Effect” in assay [13]; “Dose-Dependent Effect” in assay [14]. Moreover, the Activity result was “Dose-Dependent Effect” in [15]; “Dose-Dependent Effect” in [5]; “Dose-Dependent Effect” in assay [18]; 17.1% in assay [19]; “Dose-Dependent Effect” in assay [25]. Moreover, the EC50 in [4] is 600 nM. Moreover, the result in the assay on Splenocyte was inactive.

The term EC50 denotes the concentration at which the effect is half-maximal.
